Experimental data as given in patent publication US8063225B2, “Tricyclic compound derivatives useful in the treatment of neoplastic diseases, inflammatory disorders and immunomodulatory disorders” (Chembridge Corporation, priority 2006, dated 2011).

How the values were obtained:
InsR = biological target: T1, InsR (Homo sapiens, UniProt P06213); experiment: Tyrosine kinase assay (Kinase-Glo or AlphaScreen), InsR; settings: biochemical tyrosine kinase assay
T1 construct: 6×His- or GST-tagged kinase domain fragments of the corresponding RTKs expressed in baculovirus system; host or cells: baculovirus system
T1 sequence (P06213 1023-1298 limits assumed, species assumed): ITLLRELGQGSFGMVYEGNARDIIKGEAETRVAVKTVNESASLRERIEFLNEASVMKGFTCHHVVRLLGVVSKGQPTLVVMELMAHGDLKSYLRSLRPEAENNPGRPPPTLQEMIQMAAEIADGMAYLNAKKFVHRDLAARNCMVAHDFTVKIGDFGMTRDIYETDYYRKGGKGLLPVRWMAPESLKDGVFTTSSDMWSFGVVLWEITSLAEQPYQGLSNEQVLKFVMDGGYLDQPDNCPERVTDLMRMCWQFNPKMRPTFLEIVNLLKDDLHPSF
Outline: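 Kinase-Glo format: baculovirus-expressed tagged kinase domain, poly(Glu-Tyr), 10 μM ATP, pH 7.5 Tris, MgCl2/MnCl2, DTT; 60 min at 37° C; remaining ATP by luciferase luminescence. Other kinases run identically, enzyme titrated to ≤30% ATP consumption. IC50 by non-linear regression, quadruplicates.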

IGF1 receptor = biological target: T2, IGF1 receptor (Homo sapiens, UniProt P08069); experiment: ELISA-based assay of IGF1 receptor autophosphorylation inhibition in cells; assay type: cell-based; settings: IGF1R phosphorylation inhibition in MCF7 cells
T2 construct: MCF7 human breast cancer cells expressing IGF1 receptor; endogenous in cells; host or cells: MCF7 human breast cancer cells
T2 sequence (P08069 741-1367 limits assumed): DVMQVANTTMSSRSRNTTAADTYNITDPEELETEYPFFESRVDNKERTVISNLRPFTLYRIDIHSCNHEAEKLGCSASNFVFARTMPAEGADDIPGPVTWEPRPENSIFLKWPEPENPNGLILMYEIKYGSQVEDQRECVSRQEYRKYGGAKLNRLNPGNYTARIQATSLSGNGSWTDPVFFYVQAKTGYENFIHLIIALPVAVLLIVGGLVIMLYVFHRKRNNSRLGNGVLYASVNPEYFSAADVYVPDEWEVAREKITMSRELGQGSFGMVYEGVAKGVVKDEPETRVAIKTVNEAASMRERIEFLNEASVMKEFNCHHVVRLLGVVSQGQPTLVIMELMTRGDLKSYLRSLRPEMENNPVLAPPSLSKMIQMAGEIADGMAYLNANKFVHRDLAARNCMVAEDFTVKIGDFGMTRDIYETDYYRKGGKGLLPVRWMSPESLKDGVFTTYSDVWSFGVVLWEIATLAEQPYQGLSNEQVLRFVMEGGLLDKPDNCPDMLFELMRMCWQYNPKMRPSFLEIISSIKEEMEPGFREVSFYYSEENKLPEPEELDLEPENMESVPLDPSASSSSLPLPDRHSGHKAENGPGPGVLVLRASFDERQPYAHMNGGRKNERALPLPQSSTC
T2 sequence (P08069 31-736 partner limits assumed): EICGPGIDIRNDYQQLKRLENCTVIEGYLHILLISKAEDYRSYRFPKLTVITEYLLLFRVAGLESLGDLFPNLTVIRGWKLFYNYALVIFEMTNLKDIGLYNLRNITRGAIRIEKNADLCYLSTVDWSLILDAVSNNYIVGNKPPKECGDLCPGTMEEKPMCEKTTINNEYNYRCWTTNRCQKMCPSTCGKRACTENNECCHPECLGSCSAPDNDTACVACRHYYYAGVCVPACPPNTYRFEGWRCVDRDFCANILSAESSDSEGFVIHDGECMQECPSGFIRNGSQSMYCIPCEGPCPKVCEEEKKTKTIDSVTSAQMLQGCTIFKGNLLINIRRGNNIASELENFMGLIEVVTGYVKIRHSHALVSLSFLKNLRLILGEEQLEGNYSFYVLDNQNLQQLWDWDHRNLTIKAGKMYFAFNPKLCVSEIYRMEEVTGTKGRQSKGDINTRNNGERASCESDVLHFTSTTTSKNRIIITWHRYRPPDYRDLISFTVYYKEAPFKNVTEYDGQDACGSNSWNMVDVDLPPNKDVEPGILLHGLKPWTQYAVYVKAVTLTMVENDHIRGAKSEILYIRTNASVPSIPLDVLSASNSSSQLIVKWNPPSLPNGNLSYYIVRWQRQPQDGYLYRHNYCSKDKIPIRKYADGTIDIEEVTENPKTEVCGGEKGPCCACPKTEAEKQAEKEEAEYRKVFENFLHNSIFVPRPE
Outline: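 MCF7 cells or NIH 3T3 overexpressing full-length IGF1R, serum-starved overnight, treated with inhibitor 1 h at 37 °C (1% DMSO), then stimulated 10 min with 100 nM IGF-1. Lysates captured on anti-IGF1R-coated plates; receptor phosphotyrosine detected with 4G10-HRP and TMB, absorbance 450 nm.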

IC50 (InsR) | IC50 (IGF1 receptor) | SMILES
< 500 nM | 500 to 5000 nM | CCc1cc(C)ccc1OC[C@H](O)CNc1cc[nH]c(=O)c1-c1nc2cc3c(cc2[nH]1)CN(C1CCN(C)CC1)C3=O [compound 141]
< 500 nM | < 500 nM | Cc1ccc(OC[C@H](O)CNc2cc[nH]c(=O)c2-c2nc3cc4c(cc3[nH]2)C(=O)N(C2CCNCC2)C4=O)c(C)c1 [compound 142]
500 to 5000 nM | < 500 nM | CCN1CCC(N2C(=O)c3cc4nc(-c5c(NC[C@@H](O)COc6ccc(C)cc6C)cc[nH]c5=O)[nH]c4cc3C2=O)CC1 [compound 143]
500 to 5000 nM | 500 to 5000 nM | CCN1CCC(N2Cc3cc4nc(-c5c(NC[C@@H](O)COc6ccc(C)cc6C)cc[nH]c5=O)[nH]c4cc3C2=O)CC1 [compound 144]
